The target in one test is T1, P. aeruginosa LpxC (Pseudomonas aeruginosa, UniProt P47205).
T1 construct: made in house; host or cells: E. coli BL21(DE3)
The experiment in a line: LC–MS/MS-based determination of KM. Conditions: read-out: KM of the P. aeruginosa LpxC-catalyzed deacetylation; substrate 1, LC–MS/MS-based assay. Type of test: biochemical. The source says: (§1) Generally, the LC–MS/MS-based method represents an alternative to analyze compounds, which cannot be tested in the fluorescence-based assay, like primary amines and intrinsically fluorescent compounds. Additionally, it offers the advantage that lower substrate concentrations (10%) are used in the established protocol compared to the fluorescence-based assay, in which the detection of respectively low product concentrations would be difficult to detect due to inherently high background fluorescence. […] Additionally, the KM of E. coli LpxC C63A could be determined using the LC–MS/MS-based method (Figure S8, Supporting Information, vide supra).
Determination of enzymatic parameters
The values of KM and vmax for the E. coli LpxC C63A- as well as the P. aeruginosa LpxC-catalyzed deacetylation of UDP-3-O-[(R)-3-hydroxymyristoyl]-N-acetylglucosamine (1) were determined using the conditions of the established LC-MS/MS-based enzyme assay.
The wells in a black, non-binding, 96-well fluorescence microplate (Greiner Bio One, Frickenhausen) were filled with 93 µL of varying concentrations of UDP-3-O-[(R)-3-hydroxymyristoyl]-N-acetylglucosamine (26.9 µM, 10.8 µM, 2.69 µM, 1.08 µM, 0.538 µM, 0.269 µM) in assay buffer (40 mM sodium morpholinoethanesulfonic acid (pH = 6.0), 80 µM dithiothreitol, 0.02% Brij 35). […]

Another test has as its target T2, E. coli LpxC C63A (Escherichia coli, UniProt P0A725, C63A).
T2 construct: made in house; host or cells: E. coli BL21(DE3)
The experiment in a line: LC–MS/MS-based determination of KM. Type of test: biochemical. Conditions: substrate 1, LC–MS/MS-based assay. How it is done:
In order to determine the inhibitory activities of the compounds of interest toward E. coli LpxC, a fluorescence-based enzyme assay was deployed, in which the formed deacetylated natural product UDP-3-O-[(R)-3-hydroxymyristoyl]glucosamine (2) is transformed into a fluorescent isoindole with o-phthaldialdehyde and 2-mercaptoethanol.[48],[49] […] The KM of E. coli LpxC C63A was determined experimentally using a mass spectrometry-based LpxC assay (Figure S8, Supporting Information, vide infra).
as §1, with “supra). […]” for “supra).”
The values of KM and vmax for the E. coli LpxC C63A- as well as the P. aeruginosa LpxC-catalyzed deacetylation of UDP-3-O-[(R)-3-hydroxymyristoyl]-N-acetylglucosamine (1) were determined using the conditions of the established LC-MS/MS-based enzyme assay. […]

By Km is commonly meant the concentration of substrate that gives half-maximal velocity.

T1 sequence (P47205 whole entry): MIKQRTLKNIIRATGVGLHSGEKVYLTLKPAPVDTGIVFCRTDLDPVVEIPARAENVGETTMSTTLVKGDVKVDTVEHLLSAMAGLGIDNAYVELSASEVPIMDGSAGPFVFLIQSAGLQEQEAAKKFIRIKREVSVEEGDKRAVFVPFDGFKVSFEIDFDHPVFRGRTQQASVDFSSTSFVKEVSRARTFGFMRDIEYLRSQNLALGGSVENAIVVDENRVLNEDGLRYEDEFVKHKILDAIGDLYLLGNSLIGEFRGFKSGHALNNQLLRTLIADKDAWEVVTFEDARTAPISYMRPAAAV
T2 sequence (P0A725 whole entry C63A): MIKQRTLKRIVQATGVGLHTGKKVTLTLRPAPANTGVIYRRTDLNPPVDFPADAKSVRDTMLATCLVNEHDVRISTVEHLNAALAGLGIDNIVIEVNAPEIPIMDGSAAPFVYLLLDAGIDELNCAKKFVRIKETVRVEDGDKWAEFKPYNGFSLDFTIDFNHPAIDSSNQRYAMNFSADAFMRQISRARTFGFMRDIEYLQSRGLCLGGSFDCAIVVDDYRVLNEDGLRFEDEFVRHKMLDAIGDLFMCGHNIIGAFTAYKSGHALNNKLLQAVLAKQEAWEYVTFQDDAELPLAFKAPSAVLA

As to `CCCCCCCCCCCC(O)CC(=O)OC1C(O)C(CO)OC(OP(=O)(O)OP(=O)(O)OCC2OC(n3ccc(=O)[nH]c3=O)C(O)C2O)C1NC(C)=O` [compound 1, UDP-3-O-[(R)-3-hydroxymyristoyl]-N-acetylglucosamine], the figures for the Km on P. aeruginosa LpxC and at E. coli LpxC C63A were 4.7 µM and 3.6 µM, respectively.
